{"source": "patent US20110196000A1", "about": "“Use of succinate dehydrogenase (SDH) inhibitors in the treatment of plant species from the family of the true grasses” (Bayer CropScience AG, priority 2010, published 2011)", "type_in_all_cases": "in vivo", "key": {"[1]": {"tested_on": "infection-free wheat plants of the cultivar Passat", "test": "Glasshouse trial: yield components", "settings": "glasshouse, sprays at BBCH 39 and 59"}, "[2]": {"tested_on": "infection-free wheat plants of the cultivar Passat", "test": "Glasshouse trial: green leaf area by visual scoring", "settings": "glasshouse", "how_it_was_run": "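Infection-free wheat grown 4 months under controlled glasshouse conditions in 10-litre containers, 10 repetitions per trial component. Products applied as sequential sprays at BBCH 39 and 59 in 300 l water/ha. Duration of green leaf area scored visually at regular intervals.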"}, "wheat variety Ritmo [3]": {"tested_on": "wheat variety Ritmo", "test": "Plot trial: chlorophyll content of leaves (pigment extraction method of Ziegler and Ehle)"}, "wheat": {"tested_on": "wheat", "test": "Effect on the number of kernels/ear", "settings": "2nd trial; applied at BBCH 39 (prothioconazole 200 g a.i.; bixafen + prothioconazole 75 + 150 g a.i./ha)"}, "[4]": {"tested_on": "infection-free wheat plants of the cultivar Passat", "test": "Glasshouse trial: time of heading (ear emergence)", "parameters": "time of heading of wheat (ears emerged): unit not given here", "how_it_was_run": "(§1)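 Wheat grown in 10-litre containers for 4 months under controlled glasshouse conditions, in earth/C-horizon/sand (4:2:1) substrate, fed 0.2% liquid fertilizer every two weeks and watered as needed. Bixafen effects were assessed with 10 repetitions per trial component.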"}, "[5]": {"tested_on": "infection-free wheat plants of the cultivar Passat", "test": "Glasshouse trial: gas exchange activity of wheat ears", "settings": "development stage BBCH 75", "how_it_was_run": "as §1"}, "wheat variety Ritmo [6]": {"tested_on": "wheat variety Ritmo", "test": "Plot trial in Germany: green leaf area by visual scoring", "settings": "sprays at BBCH 39 and 59", "how_it_was_run": "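Field plot trial in Germany, wheat variety Ritmo, bixafen products sprayed sequentially at BBCH 39 and 59 at 400 l water/ha, 5 repetitions. Green leaf area duration followed by regular visual scoring of green leaf fraction.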"}, "[7]": {"tested_on": "infection-free wheat plants of the cultivar Passat", "test": "Glasshouse trial: temperature of ears and leaves as measure of transpiration activity", "how_it_was_run": "as §1"}, "[8]": {"settings": "68 days after second fungicide application (so in the source)"}, "[9]": {"settings": "75 days after second fungicide application (so in the source)"}, "[10]": {"settings": "82 days after second fungicide application (so in the source)"}, "[11]": {"settings": "89 days after second fungicide application (so in the source)"}, "[12]": {"settings": "96 days after second fungicide application (so in the source)"}, "[13]": {"settings": "103 days after second fungicide application (so in the source)"}, "[14]": {"settings": "110 days after second fungicide application (so in the source)"}, "[15]": {"settings": "117 days after second fungicide application (so in the source)"}, "[16]": {"settings": "7 days after second fungicide application"}, "[17]": {"settings": "14 days after second fungicide application"}, "[18]": {"settings": "21 days after second fungicide application"}, "[19]": {"settings": "28 days after second fungicide application"}, "[20]": {"settings": "35 days after second fungicide application"}, "[21]": {"settings": "42 days after second fungicide application"}}, "data": [{"smiles": "OC(Cc1ccccc1Cl)(Cn1nc[nH]c1=S)C1(Cl)CC1", "note": "(stereo not drawn) [Prothioconazole]", "values": [{"measurement": "Ears/pot", "setting": "[1]", "result": 43.1}, {"measurement": "Harvest Index", "setting": "[1]", "result": 27.3, "unit": "%"}, {"measurement": "Kernels/ear", "setting": "[1]", "result": 22.2}, {"measurement": "Straw", "setting": "[1]", "result": 85.4, "unit": "g/pot"}, {"measurement": "TKM (thousand-kernel mass)", "setting": "[1]", "result": 33.5, "unit": "g"}, {"measurement": "Yield", "setting": "[1]", "result": 32.1, "unit": "g/pot"}, {"measurement": "green leaf area of the flag leaf (F)", "setting": "[2]; [8]", "result": 100, "unit": "% leaf area"}, {"measurement": "green leaf area of the second-from-top leaf (F-1)", "setting": "[2]; [8]", "result": 100, "unit": "% leaf area"}, {"measurement": "green leaf area of the third-from-top leaf (F-2)", "setting": "[2]; [8]", "result": 100, "unit": "% leaf area"}, {"measurement": "green leaf area of the flag leaf (F)", "setting": "[2]; [9]", "result": 100, "unit": "% leaf area"}, {"measurement": "green leaf area of the second-from-top leaf (F-1)", "setting": "[2]; [9]", "result": 100, "unit": "% leaf area"}, {"measurement": "green leaf area of the third-from-top leaf (F-2)", "setting": "[2]; [9]", "result": 95, "unit": "% leaf area"}, {"measurement": "green leaf area of the flag leaf (F)", "setting": "[2]; [10]", "result": 100, "unit": "% leaf area"}, {"measurement": "green leaf area of the second-from-top leaf (F-1)", "setting": "[2]; [10]", "result": 95, "unit": "% leaf area"}, {"measurement": "green leaf area of the third-from-top leaf (F-2)", "setting": "[2]; [10]", "result": 83, "unit": "% leaf area"}, {"measurement": "green leaf area of the flag leaf (F)", "setting": "[2]; [11]", "result": 95, "unit": "% leaf area"}, {"measurement": "green leaf area of the second-from-top leaf (F-1)", "setting": "[2]; [11]", "result": 83, "unit": "% leaf area"}, {"measurement": "green leaf area of the third-from-top leaf (F-2)", "setting": "[2]; [11]", "result": 53, "unit": "% leaf area"}, {"measurement": "green leaf area of the flag leaf (F)", "setting": "[2]; [12]", "result": 85, "unit": "% leaf area"}, {"measurement": "green leaf area of the second-from-top leaf (F-1)", "setting": "[2]; [12]", "result": 57, "unit": "% leaf area"}, {"measurement": "green leaf area of the third-from-top leaf (F-2)", "setting": "[2]; [12]", "result": 30, "unit": "% leaf area"}, {"measurement": "green leaf area of the flag leaf (F)", "setting": "[2]; [13]", "result": 62, "unit": "% leaf area"}, {"measurement": "green leaf area of the second-from-top leaf (F-1)", "setting": "[2]; [13]", "result": 30, "unit": "% leaf area"}, {"measurement": "green leaf area of the third-from-top leaf (F-2)", "setting": "[2]; [13]", "result": 17, "unit": "% leaf area"}, {"measurement": "green leaf area of the flag leaf (F)", "setting": "[2]; [14]", "result": 38, "unit": "% leaf area"}, {"measurement": "green leaf area of the second-from-top leaf (F-1)", "setting": "[2]; [14]", "result": 19, "unit": "% leaf area"}, {"measurement": "green leaf area of the third-from-top leaf (F-2)", "setting": "[2]; [14]", "result": 8, "unit": "% leaf area"}, {"measurement": "green leaf area of the flag leaf (F)", "setting": "[2]; [15]", "result": 15, "unit": "% leaf area"}, {"measurement": "green leaf area of the second-from-top leaf (F-1)", "setting": "[2]; [15]", "result": 5, "unit": "% leaf area"}, {"measurement": "green leaf area of the third-from-top leaf (F-2)", "setting": "[2]; [15]", "result": 0, "unit": "% leaf area"}, {"measurement": "Chlorophyll content", "setting": "wheat variety Ritmo [3]; BBCH 75 (mature milk), leaf F", "result": 1740, "unit": "µg/g"}, {"measurement": "Chlorophyll content", "setting": "wheat variety Ritmo [3]; BBCH 75 (mature milk), leaf F-1", "result": 1637, "unit": "µg/g"}, {"measurement": "Chlorophyll content", "setting": "wheat variety Ritmo [3]; BBCH 75 (mature milk), leaf F-2", "result": 1207, "unit": "µg/g"}, {"measurement": "Chlorophyll content", "setting": "wheat variety Ritmo [3]; BBCH 85 (mature dough), leaf F", "result": 211, "unit": "µg/g"}, {"measurement": "Chlorophyll content", "setting": "wheat variety Ritmo [3]; BBCH 85 (mature dough), leaf F-1", "result": 163, "unit": "µg/g"}, {"measurement": "Chlorophyll content", "setting": "wheat variety Ritmo [3]; BBCH 85 (mature dough), leaf F-2", "result": 116, "unit": "µg/g"}, {"measurement": "Kernels/ear", "setting": "wheat", "result": 30.1}, {"measurement": "time of heading of wheat (ears emerged)", "setting": "[4]; 45 days after sowing", "result": 6.9}, {"measurement": "time of heading of wheat (ears emerged)", "setting": "[4]; 50 days after sowing", "result": 29.0}, {"measurement": "time of heading of wheat (ears emerged)", "setting": "[4]; 55 days after sowing", "result": 42.6}, {"measurement": "time of heading of wheat (ears emerged)", "setting": "[4]; 60 days after sowing", "result": 48.2}, {"measurement": "time of heading of wheat (ears emerged)", "setting": "[4]; 65 days after sowing", "result": 64.1}, {"measurement": "time of heading of wheat (ears emerged)", "setting": "[4]; 70 days after sowing", "result": 77.9}, {"measurement": "time of heading of wheat (ears emerged)", "setting": "[4]; 75 days after sowing", "result": 87.1}, {"measurement": "time of heading of wheat (ears emerged)", "setting": "[4]; 80 days after sowing", "result": 94.9}, {"measurement": "time of heading of wheat (ears emerged)", "setting": "[4]; 85 days after sowing", "result": 100}, {"measurement": "Photosynthesis (gas exchange activity of wheat ears)", "setting": "[5]", "result": "−1.86", "unit": "a CO2 per ear"}, {"measurement": "Respiration (gas exchange activity of wheat ears)", "setting": "[5]", "result": 2.12, "unit": "ab CO2 per ear"}, {"measurement": "green leaf area of the flag leaf", "setting": "wheat variety Ritmo [6]; [16]", "result": 98.8, "unit": "% leaf area"}, {"measurement": "green leaf area of the second-from-top leaf (F-1)", "setting": "wheat variety Ritmo [6]; [16]", "result": 97.8, "unit": "% leaf area"}, {"measurement": "green leaf area of the third-from-top leaf (F-2)", "setting": "wheat variety Ritmo [6]; [16]", "result": 96.1, "unit": "% leaf area"}, {"measurement": "green leaf area of the flag leaf", "setting": "wheat variety Ritmo [6]; [17]", "result": 98.2, "unit": "% leaf area"}, {"measurement": "green leaf area of the second-from-top leaf (F-1)", "setting": "wheat variety Ritmo [6]; [17]", "result": 97.8, "unit": "% leaf area"}, {"measurement": "green leaf area of the third-from-top leaf (F-2)", "setting": "wheat variety Ritmo [6]; [17]", "result": 95.9, "unit": "% leaf area"}, {"measurement": "green leaf area of the flag leaf", "setting": "wheat variety Ritmo [6]; [18]", "result": 98.1, "unit": "% leaf area"}, {"measurement": "green leaf area of the second-from-top leaf (F-1)", "setting": "wheat variety Ritmo [6]; [18]", "result": 96.8, "unit": "% leaf area"}, {"measurement": "green leaf area of the third-from-top leaf (F-2)", "setting": "wheat variety Ritmo [6]; [18]", "result": 94.9, "unit": "% leaf area"}, {"measurement": "green leaf area of the flag leaf", "setting": "wheat variety Ritmo [6]; [19]", "result": 94.0, "unit": "% leaf area"}, {"measurement": "green leaf area of the second-from-top leaf (F-1)", "setting": "wheat variety Ritmo [6]; [19]", "result": 91.2, "unit": "% leaf area"}, {"measurement": "green leaf area of the third-from-top leaf (F-2)", "setting": "wheat variety Ritmo [6]; [19]", "result": 83.7, "unit": "% leaf area"}, {"measurement": "green leaf area of the flag leaf", "setting": "wheat variety Ritmo [6]; [20]", "result": 58.8, "unit": "% leaf area"}, {"measurement": "green leaf area of the second-from-top leaf (F-1)", "setting": "wheat variety Ritmo [6]; [20]", "result": 44.3, "unit": "% leaf area"}, {"measurement": "green leaf area of the third-from-top leaf (F-2)", "setting": "wheat variety Ritmo [6]; [20]", "result": 25.3, "unit": "% leaf area"}, {"measurement": "green leaf area of the flag leaf", "setting": "wheat variety Ritmo [6]; [21]", "result": 13.8, "unit": "% leaf area"}, {"measurement": "green leaf area of the second-from-top leaf (F-1)", "setting": "wheat variety Ritmo [6]; [21]", "result": 4.2, "unit": "% leaf area"}, {"measurement": "green leaf area of the third-from-top leaf (F-2)", "setting": "wheat variety Ritmo [6]; [21]", "result": 0, "unit": "% leaf area"}, {"measurement": "green leaf area of the second-from-top leaf (F-1)", "setting": "wheat variety Ritmo [6]; 49 days after second fungicide application", "result": 0, "unit": "% leaf area"}, {"measurement": "Temperature (as a measure of the transpiration activity)", "setting": "[7]; BBCH 75, ear", "result": 23.1, "unit": "°C"}, {"measurement": "Temperature (as a measure of the transpiration activity)", "setting": "[7]; BBCH 75, leaf", "result": 22.4, "unit": "°C"}, {"measurement": "Temperature (as a measure of the transpiration activity)", "setting": "[7]; BBCH 80, ear", "result": 19.5, "unit": "°C"}, {"measurement": "Temperature (as a measure of the transpiration activity)", "setting": "[7]; BBCH 80, leaf", "result": 16.6, "unit": "°C"}, {"measurement": "Temperature (as a measure of the transpiration activity)", "setting": "[7]; BBCH 85, ear", "result": 24.8, "unit": "°C"}, {"measurement": "Temperature (as a measure of the transpiration activity)", "setting": "[7]; BBCH 85, leaf", "result": 23.7, "unit": "°C"}, {"measurement": "Temperature (as a measure of the transpiration activity)", "setting": "[7]; BBCH 90, ear", "result": 24.2, "unit": "°C"}, {"measurement": "Temperature (as a measure of the transpiration activity)", "setting": "[7]; BBCH 90, lear (so in the source)", "result": 23.1, "unit": "°C"}]}]}
